# Earlier results as cited in patent publication US11826321B2, “Cyclobenzaprine treatment for agitation, psychosis and cognitive decline in dementia and neurodegenerative conditions” (TONIX PHARMA HOLDINGS LIMITED, priority 2017, dated 2023).
# Assays:
# [1] = target: serotonergic-2A (5-HT2A) receptor (Homo sapiens, UniProt P28223)
# [2] = IR 5 to 10 mg TID and ER 15 mg BID/QD to 30 mg QD; scale to 3
# [3] = target: alpha-adrenergic-1A (α1A) receptor (Homo sapiens, UniProt P35348)
# [4] = PubMed, NIH Drug Reaction Navigator, Medscape Drug Interaction Checker, Drugs.com
# [5] = IR 5 mg TID, 10 doses over 4 days, healthy elderly 62 to 80 years
# Chain of serotonergic-2A (5-HT2A) receptor (P28223 whole entry, species assumed): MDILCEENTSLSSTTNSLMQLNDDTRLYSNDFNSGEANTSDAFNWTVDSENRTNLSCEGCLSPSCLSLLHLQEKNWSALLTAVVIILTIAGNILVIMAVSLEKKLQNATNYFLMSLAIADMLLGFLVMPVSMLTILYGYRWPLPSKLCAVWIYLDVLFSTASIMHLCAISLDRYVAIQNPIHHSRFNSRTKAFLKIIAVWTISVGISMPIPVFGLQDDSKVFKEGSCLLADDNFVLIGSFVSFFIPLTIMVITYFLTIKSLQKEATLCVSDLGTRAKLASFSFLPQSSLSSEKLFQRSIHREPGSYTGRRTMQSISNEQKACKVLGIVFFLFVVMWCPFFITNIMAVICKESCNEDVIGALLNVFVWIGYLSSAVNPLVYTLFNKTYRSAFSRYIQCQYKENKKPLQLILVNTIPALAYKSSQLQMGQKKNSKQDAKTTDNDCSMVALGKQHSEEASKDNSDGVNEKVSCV
# Chain of alpha-adrenergic-1A (α1A) receptor (P35348 whole entry): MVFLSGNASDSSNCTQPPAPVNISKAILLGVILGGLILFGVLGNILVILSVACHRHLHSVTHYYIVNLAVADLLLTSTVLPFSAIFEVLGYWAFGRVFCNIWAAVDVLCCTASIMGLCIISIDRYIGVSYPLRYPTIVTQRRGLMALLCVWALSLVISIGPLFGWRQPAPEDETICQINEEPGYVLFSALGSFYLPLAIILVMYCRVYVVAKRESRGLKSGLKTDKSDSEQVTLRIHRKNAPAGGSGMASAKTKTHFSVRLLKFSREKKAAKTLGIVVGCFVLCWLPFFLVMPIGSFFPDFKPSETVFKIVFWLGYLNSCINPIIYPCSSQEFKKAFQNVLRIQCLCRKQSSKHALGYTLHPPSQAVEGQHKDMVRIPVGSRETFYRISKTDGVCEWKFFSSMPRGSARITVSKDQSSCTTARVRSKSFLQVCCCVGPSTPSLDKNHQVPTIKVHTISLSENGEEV
compound,measurement,setting,value
"CN(C)CCC=C1c2ccccc2C=Cc2ccccc21 [Cyclobenzaprine, 3-(5H-dibenzola[a,d]cyclohepten-5-ylidene)-N,N-dimethyl-1 propanamine]",5-HT2A antagonist potency,[1],potent
same,anticholinergic burden scale score,[2],2
same,α1A antagonist potency,[3],potent
same,hallucinations reported among patients who took 5 mg TID,5 mg TID,none were reported
same,incidence of hallucinations,"cyclobenzaprine 10 mg, mostly elderly patients",0.2%
same,"reports of drug-drug interactions with donepezil, rivastigmine, galantamine, memantine",[4],did not identify any reports of interactions
same,drowsiness and cognitive test performance,[5],does not appear to cause excessive drowsiness or impair performance on cognitive tasks
